Experimental findings from patent publication US5225425A, “Bis-aryl amide antagonists of platelet activating factor” (American Cyanamid Company, priority 1992, dated 1993) are described below.

What is called IC50 is the concentration needed to halve the response being measured. Higher therefore signals weaker potency in that assay.

Assay [1] concerns the target T1, PAF receptor (Oryctolagus cuniculus, UniProt G1TEI7).
T1 construct: centrifuged at 800 rpm for 10-15 minutes at room temperature to recover the platelet rich plasma (PRP); from tissue; host or cells: platelets in platelet rich plasma from blood of male New Zealand White rabbits
Description: Inhibition of PAF induced platelet aggregation in rabbit platelet rich plasma. Format: cell-based, rabbit (New Zealand White). Particulars: for inhibition at 10 µM: dose .00001 M. As for the experimental part: Test compounds are evaluated as PAF receptor antagonists in vitro by measuring inhibition of PAF (platelet activating factor) induced platelet aggregation. Platelet aggregation is measured by a modification of the method described in […], et. al., J. Med. Chem., 27 1174, 1984. […] All syringes and pipets are plastic. The blood is gently mixed and immediately centrifuged at 800 rpm for 10-15 minutes at room temperature to recover the platelet rich plasma (PRP). Platelet poor plasma (PPP) is prepared by centrifuging PRP at 2800 rpm for 10 minutes at room temperature. Dilutions (1:3000) of PRP in Isotone diluent are made and platelet counts are determined on a Coulter Thrombocounter which is standardized with platelet reference standards (Interscience Platelet Control, Portland, Oreg.). PRP platelet counts are adjusted to approximately 400,000-500,000 platelets/μl by the addition of PPP. L-PAF (Platelet Activating Factor) is obtained from Calbiochem. […] All solutions are made up in plastic tubes, stored on ice and protected from heat and light. Solutions are prepared fresh or frozen at -20° C. and used within 48 hours. Incubation mixtures consisted of 400 μl PRP, 50 μl of saline diluent or test compound and 50 μl of PAF agonist. More specifically, 400μl of PRP is stabilized in a cuvette for 1-2 minutes at 37° C. in the aggregometer to achieve a stable baseline, then 50 μl of saline or test compound is added and incubated for 5 minutes before addition of the challenge concentration of pAF. A submaximal concentration is determined from the dose response curve for PAF for that experiment. In general, the challenge concentration is 5E-8 or 1E-7M. Aggregation is monitored for 5 minutes. Samples containing test compound or diluent are run simultaneously for comparison. Test compounds are initially evaluated at a screening concentration of 1E-5M. […] The recording equipment consists of a dual channel Chronolog aggregometer connected to a dual channel 10MV full scale deflection Omniscribe chart recorder (Houston Instruments). The chart recorder is calibrated daily with the use of a suspension of Bio-Rad latex beads (S-X 12 400 mesh) which has a density slightly greater than rabbit PRP. […] These limits defined a full scale deflection. The aggregation traces are analyzed by a digitizing method (C. Kohler and B. Zoltan, J. Pharm. Methods, 12, 113, 1984) with x, y coordinate data stored in a computer file. A suitable program computes parameters of interest such as the magnitude of aggregation.

For assay [2], the system named is PAF. Description: PAF induced lethality in mice. The class given is in vivo. Particulars: PAF 150 μg/kg IV. As for the experimental part:
PAF given I.V. to mice causes an immediate hypotensive shock leading to death in 1 hour or less. […] Animals alive after 2 hours are counted and the activity of test compounds expressed as % survival corrected for any control (saline treated) animals which survived the PAF challenge.

The mark [3] stands for this setting: PAF challenge .0000005 M, read-out: % INH of PAF induced platelet aggregation.
[4] abbreviates: PAF challenge 1.0000E-08 M, read-out: % INH of PAF induced platelet aggregation.
Where [5] appears, read: PAF challenge 5.0000E-08 M, read-out: % INH of PAF induced platelet aggregation.

Molecules are shown by their SMILES. Values joined by “and” are separate entries in the source; they are usually repeats but may differ in a detail not shown here. Equal entries are not always repeated. Structures can show the parent of a compound that is named as a salt. Where two headings read alike, the source gives them in different places.

T1 sequence (G1TEI7 1-342): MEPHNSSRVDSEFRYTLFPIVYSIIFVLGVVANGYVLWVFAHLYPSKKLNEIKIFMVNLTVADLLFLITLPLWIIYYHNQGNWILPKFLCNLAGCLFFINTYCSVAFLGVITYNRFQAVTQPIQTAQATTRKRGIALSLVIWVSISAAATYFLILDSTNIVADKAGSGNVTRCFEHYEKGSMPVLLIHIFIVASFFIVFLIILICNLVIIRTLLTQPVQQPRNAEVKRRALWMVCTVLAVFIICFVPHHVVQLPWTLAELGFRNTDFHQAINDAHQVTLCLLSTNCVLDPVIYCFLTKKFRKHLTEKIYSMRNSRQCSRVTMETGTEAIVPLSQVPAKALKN

In the case of `CCCCCCCCCCCCCCOc1ccc(CCN(C(C)=O)c2cccc(C[n+]3csc(C)c3)c2)cc1` [3-[[3-[Acetyl[2-[4-(tetradecyloxy)phenyl]ethyl]amino]phenyl]methyl]-5-methyl-thiazolium bromide], the IC50 came out at 2.91 µM in assay [1] (PAF challenge 8.0000E-09 M) and 4.3 µM in assay [1] (PAF challenge .0000005 M). The inhibition at 10 µM was determined as 85% in assay [1] (PAF challenge 8.0000E-09 M, read-out: % INH of PAF induced platelet aggregation) and 69% in assay [1] (setting [3]).

In the case of `CCCCCCCCCCCCCCCCOc1ccc(OCC(=O)Nc2cccc(C[n+]3csc(C)c3)c2)cc1` [3-[[3-[[[4-(Hexadecyloxy)phenoxy]acetyl]amino]phenyl]methyl]-5-methyl-thiazolium bromide], the results for the IC50 in assay [1] (PAF challenge 1.0000E-08 M) and in assay [1] (PAF challenge 5.0000E-08 M) were 4.4 µM and 5 µM, respectively. Further, the inhibition at 10 µM was 93% in assay [1] (setting [4]) and 72% in assay [1] (setting [5]).

Turning to `CCCCCCCCCCCCCCOc1ccc(C(=O)Nc2cccc(C[n+]3csc(C)c3)c2)cc1` [5-Methyl-3-[[3-[[4-(tetradecyloxy)benzoyl]amino]phenyl]methyl]thiazolium bromide], in assay [1] (PAF challenge 5.0000E-08 M), the IC50 was 5.97 µM. In assay [1] (setting [5]), the inhibition at 10 µM was determined as 54%.

As for `CCCCCCCCCCCCCCOc1ccc(CC(=O)Nc2ccc(C[n+]3csc(C)c3)cc2)cc1.[Br-]` [5-methyl-3-[[4-[[[4-(tetradecyloxy)phenyl]acetyl]amino]phenyl]methyl]-thiazolium bromide], the IC50 in assay [1] (PAF challenge 5.0000E-08 M) is 0.18 µM and 0.32 µM and 1.3 µM. Further, the inhibition at 10 µM in assay [1] (setting [5]) is 92%. Further, the “% Survival” value in assay [2] (5 mg/kg P.O.) and in assay [2] (20 mg/kg P.O.) was 32% each time.

The compound `CCCCCCCCCCCCCCOc1ccc(CC(=O)Nc2cccc(C[n+]3ccn4ccccc43)c2)cc1` yielded an IC50 in assay [1] (PAF challenge 5.0000E-08 M) of 1.5 µM. Moreover, the inhibition at 10 µM in assay [1] (setting [5]) turned out to be 91%.

In assay [1] (PAF challenge 5.0000E-08 M), `CCCCCCCCCCCCCCOc1ccc(CN(C(C)=O)c2ccc(C[n+]3csc(C)c3)cc2)cc1` [3-[[4-[acetyl[[4-(tetradecyloxy)phenyl]methyl]amino]phenyl]methyl]-5-methyl-thiazolium bromide] showed an IC50 of 2.1 µM. Further, in assay [1] (dose .0000001 M, PAF challenge 5.0000E-08 M, read-out: % INH of PAF induced platelet aggregation), the inhibition at 0.1 µM was 84%.

For the compound `CCCCCCCCCCCCCCOc1ccc(NC(=O)Nc2cccc(C[n+]3csc(C)c3)c2)cc1` [5-Methyl-3-[[3-[[[[4-(tetradecyloxy)phenyl]amino]carbonyl]amino]phenyl]methyl]thiazolium bromide], the 50% inhibitory concentration (IC50) is 1.5 µM in assay [1] (PAF challenge 5.0000E-08 M) and 16.9 µM in assay [1] (PAF challenge .0000001 M). Also, the inhibition at 10 µM in assay [1] (setting [5]) came to 92%. Further, in assay [1] (dose .00005 M, PAF challenge .0000001 M, read-out: % INH of PAF induced platelet aggregation), the inhibition at 50 µM was 80%.

Compound `CCCCCCCCCCCCCCOc1ccc(CC(=O)Nc2cccc(-n3cc[n+](C)c3C)c2)cc1` [2,3-dimethyl-1-[3-[[[4-(tetradecyloxy)phenyl]acetyl]amino]phenyl]1H-imidazolium iodide] registered an IC50 in assay [1] (PAF challenge 5.0000E-08 M) of 2.47 µM. The inhibition at 10 µM in assay [1] (setting [5]) was 80%.

`CCCCCCCCCCCCCCOc1ccc(NC(=O)c2cccc(C[n+]3csc(C)c3)c2)cc1` [5-Methyl-3-[[3-[[[4-(tetradecyloxy)phenyl]amino]carbonyl]phenyl]methyl]thiazolium bromide] displayed an IC50 in assay [1] (PAF challenge 5.0000E-08 M) of 2.7 µM. The inhibition at 10 µM in assay [1] (setting [5]) turned out to be 89%.

With `CCCCCCCCCCCCCCCCOc1ccc(OCC(=O)Nc2ccccc2C[n+]2csc(C)c2)cc1` [3-[[2-[[[4-(Hexadecyloxy)phenoxy]acetyl]amino]phenyl]methyl]-5-methyl-thiazolium bromide], the IC50 in assay [1] (PAF challenge 1.0000E-08 M) came to 11.2 µM; in assay [1] (PAF challenge .0000005 M), 3.8 µM. The values for the inhibition at 10 µM in assay [1] (setting [4]) and in assay [1] (setting [3]) were 60% and 83%, respectively.

For `CCCCCCCCCCCCCCOc1ccc(CC(=O)Nc2cccc(-c3scc[n+]3C)c2)cc1` [3-Methyl-2-[3-[[[4-(tetradecyloxy)phenyl]acetyl]amino]phenyl]thiazolium chloride], the IC50 in assay [1] (PAF challenge 5.0000E-08 M) amounted to 12 µM. Besides, in assay [1] (setting [5]), the inhibition at 10 µM amounted to 46%.

As to `CCCCCCCCCCCCCCOc1cccc(CC(=O)Nc2ccccc2C[n+]2csc(C)c2)c1` [5-Methyl-3-[[2-[[[3-(tetradecyloxy)phenyl]acetyl]amino]phenyl]methyl]thiazolium bromide], the IC50 in assay [1] (PAF challenge 5E-9 M) was found to be 34 µM. Also, the inhibition at 10 µM in assay [1] (setting [5]) turned out to be 23%; in assay [1] (PAF challenge 5E-9 M, read-out: % INH of PAF induced platelet aggregation) it was 27%.

Take `CCCCCCCCCCCCCCOc1ccc(CC(=O)Nc2cccc(-n3ccnc3C)c2)cc1` [N-[3-(2-methyl-1H-imidazol-1-yl)phenyl]-4-(tetradecyloxy)-benzeneacetamide monohydrochloride]: the IC50 in assay [1] (PAF challenge 5.0000E-08 M) turned out to be 18.6 µM. Also, the inhibition at 10 µM in assay [1] (setting [5]) worked out at 34%.

Regarding `CCCCCCCCCCCCCCOc1ccc(CN(C(C)=O)c2cccc(C[n+]3csc(C)c3)c2)cc1.[Br-]` [3-[[3-[Acetyl[[4-(tetradecyloxy)phenyl]methyl]amino]phenyl]methyl]-5-methylthiazolium bromide], the inhibition at 10 µM in assay [1] (setting [5]) worked out at 98%. For the same compound, the “% Survival” value in assay [2] (1 mg/kg I.V.) stood at 83%; in assay [2] (5 mg/kg P.O.), 52%; in assay [2] (10 mg/kg P.O.), 75%; in assay [2] (20 mg/kg P.O.) it was 75%; in assay [2] (.25 mg/kg I.V.) it was 100%; in assay [2] (.5 mg/kg I.V.), 83%.

The compound `CCCCCCCCCCCCCCOc1ccc(CC(=O)Nc2ccc(-n3cc[n+](C)c3C)cc2)cc1` [2,3-dimethyl-1-[4-[[[4-(tetradecyloxy)phenyl]acetyl]amino]phenyl]1H-imidazolium iodide] showed an IC50 in assay [1] (PAF challenge 5.0000E-08 M) of 4.51 µM. Moreover, the inhibition at 10 µM in assay [1] (setting [5]) was 62%.

`CCCCCCCCCCCCCCOc1ccc(CN(C(C)=O)c2cccc(C[n+]3ccc(C)c(C)c3)c2)cc1` [1-[[3-[acetyl[[4-(tetradecyloxy)phenyl]methyl]amino]phenyl]methyl]-3,4-dimethyl-pyridinium bromide]: the IC50 in assay [1] (PAF challenge 5.0000E-08 M) was determined as 12 µM. The inhibition at 10 µM in assay [1] (setting [5]) was determined as 52%.

As to `CCCCCCCCCCCCCCOc1ccc(CC(=O)Nc2cccc(C[n+]3cc(C)cc(C)c3)c2)cc1` [3,5-Dimethyl-1-[[3-[[[4-(tetradecyloxy)phenyl]acetyl]amino]phenyl]methyl]pyridinium bromide], the inhibition at 10 µM in assay [1] (setting [5]) was found to be 84%.
